# Data from US6204293A, “Inhibitors of protein isoprenyl transferases” (University of Pittsburgh, priority 1998, dated 2001).
# Structures can show the parent of a compound that is named as a salt.
# Target: T1, Rat brain protein farnesyltransferase (Rattus norvegicus, UniProt Q02293+Q04631)
# T1 construct: Rat brain protein farnesyltransferase activity is measured; from tissue; host or cells: rat brain
# Test: % inhibition of farnesylation, scintillation proximity assay with biotin-K Ras B fragment
# Type: biochemical
# Conditions: Table 1; 1 × 10^-5 M
# Excerpt: The ability of the compounds of the invention to inhibit protein farnesyltransferase or protein geranylgeranyltransferase can be measured according to the method of Moores, et al., J. Biol. Chem. 266: 14603 (1991) or the method of Vogt, et al., J. Biol. Chem. 270:660-664 (1995). In addition, procedures for determination of the inhibition of farnesylation of the oncogene protein Ras are described by Goldstein, et al., J. Biol. Chem., 266:15575-15578 (1991) and by Singh in U.S. Pat. No. 5,245,061.
# In addition, in vitro inhibition of protein farnesyltransferase may be measured by the following procedure. Rat brain protein farnesyltransferase activity is measured using an Amersham Life Science commercial scintillation proximity assay kit and substituting a biotin-K Ras B fragment (biotin-[…]CO2 H), 0.1 mM final concentration, for the biotin-lamin substrate provided by Amersham. The enzyme is purified according to Reiss, Y., et al., Cell, 62: 81-88 (1990), utilizing steps one through three.
# The % inhibition of protein farnesyltransferase was determined for representative compounds of the invention.
# T1 sequence (Q02293 whole entry, one chain of several): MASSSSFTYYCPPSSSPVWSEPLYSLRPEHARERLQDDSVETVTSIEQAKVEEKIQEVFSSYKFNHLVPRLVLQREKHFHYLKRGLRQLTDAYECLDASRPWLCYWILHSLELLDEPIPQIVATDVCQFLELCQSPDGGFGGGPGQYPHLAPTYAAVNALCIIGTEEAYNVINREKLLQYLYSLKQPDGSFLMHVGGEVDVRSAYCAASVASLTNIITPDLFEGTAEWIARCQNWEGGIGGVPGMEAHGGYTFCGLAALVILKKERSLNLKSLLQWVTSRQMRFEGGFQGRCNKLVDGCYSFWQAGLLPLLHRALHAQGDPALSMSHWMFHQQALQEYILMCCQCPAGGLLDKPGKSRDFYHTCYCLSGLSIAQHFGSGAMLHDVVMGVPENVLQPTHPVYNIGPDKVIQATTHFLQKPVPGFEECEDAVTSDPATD
row,Structure (SMILES),% inhibition at 1 × 10^-5 M [%]
1,CSCC[C@H](NC(=O)c1ccc(CNc2cc[nH]n2)cc1-c1ccccc1)C(=O)O [Example 370],86
2,CSCC[C@H](NC(=O)c1ccc(CNc2cccc(C)c2)cc1-c1ccccc1)C(=O)O [Example 674],40
3,CSCC[C@H](NC(=O)c1ccc(NC(=O)CCN)cc1-c1ccccc1)C(=O)O [Example 750],44
4,CSCC[C@H](NC(=O)c1ccc(CNc2cccc(O)c2)cc1-c1ccccc1)C(=O)O [Example 676],76
5,CSCC[C@H](NC(=O)c1ccc(CNc2nccs2)cc1-c1ccccc1)C(=O)O [Example 374],61

# Same assay, conditions: Table 2; 1 × 10^-6 M
row,Structure (SMILES),% inhibition at 1 × 10^-6 M [%]
1,COc1ccc(CNCc2ccc(C(=O)N[C@@H](CCSC)C(=O)O)c(-c3ccccc3)c2)c(OC)c1 [Example 655],35
2,CSCC[C@H](NC(=O)c1ccc(CCc2ccccc2-c2ccccc2)cc1-c1ccccc1C)C(=O)[O-].[Li+] [Example 452],96
3,CSCC[C@H](NC(=O)c1ccc(CN(CCC2CCCCC2)C(=O)N(C)C)cc1-c1ccccc1C)C(=O)O [Example 610],94
4,CSCC[C@H](NC(=O)c1ccc(CN[C@H](/C=C\CC(C)C)CC2CCCCC2)cc1-c1ccccc1)C(=O)O [Example 666],82
5,CSCCC(NC(=O)c1ccc(NC(=O)Cc2cscn2)cc1-c1ccccc1)C(=O)O (stereo not shown) [Example 162],12
6,CSCC[C@H](NC(=O)c1ccc(/C=C/c2ccccc2)cc1-c1ccccc1C)C(=O)O [Example 791],53
7,CSCC[C@H](NC(=O)c1ccc(CN(C)CC(O)CO)cc1-c1ccccc1C)C(=O)O (stereo partly shown) [Example 719],90
8,CSCC[C@H](NC(=O)c1ccc(CNc2cccc(I)c2)cc1-c1ccccc1)C(=O)O [Example 677],37
9,Cc1ccccc1-c1cc(CN(C)C(C)(C)Cc2ccccc2)ccc1C(=O)N[C@@H](CCS(C)(=O)=O)C(=O)O [Example 313],94
10,CSCC[C@H](NC(=O)c1ccc(CN(C2CC2)C2(CC3CCCCC3)CCC2)cc1-c1ccccc1C)C(=O)O [Example 330],98
11,Cc1ccccc1-c1cc(CN(C2CC2)C(C)(C)CC2CCCCC2)ccc1C(=O)N[C@@H](CCS(C)(=O)=O)C(=O)O [Example 320],93
12,CSCC[C@H](NC(=O)c1ccc(CN(C)C(CC2CCCCC2)C(=O)N2CCCCC2)cc1-c1ccccc1C)C(=O)O (stereo partly shown) [Example 301],98
13,CSCC[C@H](NC(=O)c1ccc(CN[C@H](CO)Cc2ccccc2)cc1-c1ccccc1C)C(=O)O [Example 727],95

# Same assay, conditions: Table 3; 1 × 10^-7 M
row,Structure (SMILES),% inhibition at 1 × 10^-7 M [%]
1,CSCC[C@H](NC(=O)c1ccc(CNc2ccc(Oc3ccccc3)cc2)cc1-c1ccccc1C)C(=O)O [Example 864],84
2,CCCC(CCC)NOCc1ccc(C(=O)N[C@@H](CCSC)C(=O)O)c(-c2ccccc2C)c1 [Example 929],81
3,CSCC[C@H](NC(=O)c1ccc(CN[C@H](CO)C2CCCCC2)cc1-c1ccccc1C)C(=O)O [Example 520],97
4,CSCC[C@H](NC(=O)c1ccc(/C=C/c2ccc(Oc3cccc([N+](=O)[O-])c3)cc2)cc1-c1ccccc1C)C(=O)O [Example 861],65
5,CSCC[C@H](NC(=O)c1ccc(CNc2ccc(N3CCOCC3)cc2)cc1-c1ccccc1C)C(=O)O [Example 863],72
6,CSCC[C@H](NC(=O)c1ccc(CN[C@H](CCCC(C)C)CC2CCCCC2)cc1-c1ccccc1C)C(=O)O [Example 527],97

# Same assay, conditions: Table 4; 1 × 10^-8 M
row,Structure (SMILES),% inhibition at 1 × 10^-8 M [%]
1,CSCC[C@H](NC(=O)c1ccc(CN(Cc2ccc3c(c2)OCO3)c2cnccn2)cc1-c1ccccc1C)C(=O)O [Example 838],92
2,CCCCS(=O)(=O)N(CCC1CCCCC1)Cc1ccc(C(=O)N[C@@H](CCSC)C(=O)O)c(-c2ccccc2C)c1 [Example 916],96

# Same assay, conditions: Table 6; ** footnote 0.01 μM (title: 0.01 mM)
row,Structure (SMILES),% inhibition at 0.01 μM (**) [%]
1,CSCC[C@H](NC(=O)c1ccc(CN(CCF)CCC2CCCCC2)cc1-c1ccccc1C)C(=O)O [Example 1094],96

# Same assay, conditions: read-out: % inhibition at 1 × 10^-6 M
row,Structure (SMILES),inhibition at 1 µM [%]
1,"CSCC[C@H](NC(=O)c1ccc(CSC2CCCCC2)cc1-c1ccccc1C)C(=O)O [Example 550, N-[4-cyclohexylthiomethyl-2-(2-methylphenyl)benzoyl]methionine, lithium salt]",96

# Same assay, conditions: read-out: % inhibition at 1 × 10^-6 M; Table 2; 1 × 10^-6 M
row,Structure (SMILES),inhibition at 1 µM [%]
1,"CSCC[C@H](NC(=O)c1ccc(COCc2ccc(CN(C)C)o2)cc1-c1ccccc1C)C(=O)O [Example 435, N-[4-(5-N,N-dimethylaminomethylfuran-2-ylmethoxymethyl)-2-(2-methylphenyl)benzoyl]methionine]",96
2,"CSCC[C@H](NC(=O)c1ccc(COCCCC2CCCCC2)cc1-c1ccccc1C)C(=O)O [Example 405, 4-(3-cyclohexylpropoxy)methyl-2-(2-methylphenyl)benzoylmethionine lithium salt.]",98
3,"CSCC[C@H](NC(=O)c1ccc(CS(=O)(=O)Cc2ccccc2)cc1-c1ccccc1C)C(=O)O [Example 555, N-[4-benzylsulfonylmethyl-2-(2-methylphenyl)benzoyl]methionine]",85

# Same assay, conditions: read-out: % inhibition at 1 × 10^-7 M
row,Structure (SMILES),inhibition at 0.1 µM [%]
1,"CSCC[C@H](NC(=O)c1ccc(COCc2cnc(C(C)(C)C)s2)cc1-c1ccccc1C)C(=O)O [Example 895, N-[4-(2-t-butylthiazol-5-ylmethoxymethyl)-2-(2-methylphenyl)benzoyl]methionine lithium salt]",92
2,"CSCC[C@H](NC(=O)c1ccc(COCCc2ccc3ccccc3c2)cc1-c1ccccc1C)C(=O)O [Example 593, N-[4-(2-naphth-2-ylethoxymethyl)-2-(2-methylphenyl)benzoyl]methionine lithium salt]",86
3,"CSCC[C@H](NC(=O)c1ccc(COCc2ccc(-c3ccc(C(C)=O)cc3)o2)cc1-c1ccccc1C)C(=O)O [Example 449, N-[4-(5-(4-acetylphenyl)furan-2-ylmethoxymethyl)-2-(2-methylphenyl)benzoyl]methionine lithium salt]",91

# Same assay, conditions: read-out: % inhibition at 1 × 10^-7 M; Table 3; 1 × 10^-7 M
row,Structure (SMILES),inhibition at 0.1 µM [%]
1,CSCC[C@H](NC(=O)c1ccc(CSc2nc(C)cc(C)n2)cc1-c1ccccc1C)C(=O)O [Example 743],51
2,CSCC[C@H](NC(=O)c1ccc(CSc2nc3cc(C)ccc3[nH]2)cc1-c1ccccc1C)C(=O)O [Example 733],60
3,"CSCC[C@H](NC(=O)c1ccc(COCc2ccc(-c3ccc(Cl)cc3)o2)cc1-c1ccccc1C)C(=O)NS(C)(=O)=O [Example 818, N-[4-(5-(4-chlorophenyl)furan-2-ylmethoxymethyl)-2-(2-methylphenyl)benzoyl]methionine methanesulfonimide]",78
4,CSCC[C@H](NC(=O)c1ccc(CSc2ncnc3[nH]cnc23)cc1-c1ccccc1C)C(=O)O [Example 747],68
5,"COc1ccccc1CCOCc1ccc(C(=O)N[C@@H](CCSC)C(=O)O)c(-c2ccccc2C)c1 [Example 589, N-[4-(2-(2-methoxyphenyl)ethoxymethyl)-2-(2-methylphenyl)benzoyl]methioninelithium salt]",91

# Same assay, conditions: read-out: % inhibition at 1 × 10^-8 M
row,Structure (SMILES),inhibition at 0.01 µM [%]
1,"CSCC[C@H](NC(=O)c1ccc(COCc2ccc(-c3ccc(C(C)C)cc3)o2)cc1-c1ccccc1C)C(=O)O [Example 820, N-[4-(5-(4-isopropylphenyl)furan-2-ylmethoxymethyl)-2-(2-methylphenyl)benzoyl]methionine lithium salt]",66
